# Molecular target: T1, HIV-integrase (Human immunodeficiency virus type 1 group M subtype B, UniProt P12497)
# T1 construct: Recombinant integrase (0.26 ng) was incubated with the beads
# Test: HIV-Integrase Inhibition Activity (SPA bead integration assay with P33 labeled target DNA)
# Type: biochemical
# Conditions: recombinant integrase, class symbols; read-out: in vitro activity
# In short: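 Strand integration read as bead-proximity CPM after P33 target DNA (0.1 fmol) and inhibitor were added to washed integrase–substrate DNA complexes on SPA beads. Enzyme bound 90 min at 37° C; EDTA (10 mM final) terminated reaction; IC50 graded A/B/C.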
row,Compound,IC50 [nM]
1,"Cc1nnc(C(=O)NC23CCC(CC2)Cn2c3nc(C(=O)NCc3ccc(F)cc3)c(O)c2=O)o1 [Example 53, N-(4-Fluorobenzyl)-3-hydroxy-10-(((5-methyl-1,3,4-oxadiazol-2-yl)carbonyl)amino)-4-oxo-4,6,7,8,9,10-hexahydro-7,11-ethanopyrimido[1,2-a]azepine-2-carboxamide]",< 10
2,"C[C@@H]1CN(C(=O)C(=O)NC23CCC(CC2)Cn2c3nc(C(=O)NCc3ccc(F)cc3)c(O)c2=O)C[C@H](C)O1 [Example 64, 10-((((2R,6S)-2,6-Dimethyl-4-morpholinyl)(oxo)acetyl)amino)-N-(4-fluorobenzyl)-3-hydroxy-4-oxo-4,6,7,8,9,10-hexahydro-7,10-ethanopyrimido[1,2-a]azepine-2-carboxamide]",< 10
3,CN(C)C(=O)C(=O)NC12CCC(CC1)Cn1c2nc(C(=O)NCc2ccc3c(c2)OCO3)c(O)c1=O [Example 362],< 10
4,"C=C[C@@H]1C[C@]1(NC(C)=O)C(=O)NC12CCC(CC1)Cn1c2nc(C(=O)NCc2ccc(F)cc2)c(O)c1=O [Example 277, 7,10-Ethanopyrimido[1,2-a]azepine-2-carboxamide, 10-[[[(1R,2S)-1-(acetylamino)-2-ethenylcyclopropyl]carbonyl]amino]-N-[(4-fluorophenyl)methyl]-4,6,7,8,9,10-hexahydro-3-hydroxy-4-oxo-]",10 to 100
5,"Cc1cc(CNC(=O)c2nc3n(c(=O)c2O)CC2CCC3(NC(=O)N(C)c3ccccn3)CC2)ccc1F [Example 329, 7,10-Ethanopyrimido[1,2-a]azepine-2-carboxamide, N-[(4-fluoro-3-methylphenyl)methyl]-4,6,7,8,9,10-hexahydro-3-hydroxy-10-[[(methyl-2-pyridinylamino)carbonyl]amino]-4-oxo-]",< 10
6,"Cn1cc(C(=O)NC23CCC(CC2)Cn2c3nc(C(=O)NCc3ccc(F)cc3)c(O)c2=O)cn1 [Example 246, 7,10-Ethanopyrimido[1,2-a]azepine-2-carboxamide, N-[(4-fluorophenyl)methyl]-4,6,7,8,9,10-hexahydro-3-hydroxy-10-[[(1-methyl-1H-pyrazol-4-yl)carbonyl]amino]-4-oxo-]",< 10
7,"COc1cnc(Cl)c2[nH]cc(C(=O)C(=O)NC34CCC(CC3)Cn3c4nc(C(=O)NCc4ccc(F)cc4)c(O)c3=O)c12 [Example 47, 10-(((7-Chloro-4-methoxy-1H-pyrrolo[2,3-c]pyridin-3-yl)(oxo)acetyl)amino)-N-(4-fluorobenzyl)-3-hydroxy-4-oxo-4,6,7,8,9,10-hexahydro-7,10-ethanopyrimido[1,2-a]azepine-2-carboxamide]",< 10
8,"CN(CC1CCCO1)C(=O)C(=O)NC12CCC(CC1)Cn1c2nc(C(=O)NCc2ccc(F)cc2)c(O)c1=O (stereo not shown) [Example 94, N′-(2-((4-Fluorobenzyl)carbamoyl)-3-hydroxy-4-oxo-6,7,8,9-tetrahydro-7,10-ethanopyrimido[1,2-a]azepin-10(4H)-yl)-N-methyl-N-(tetrahydro-2-furanylmethyl)ethanediamide]",< 10
9,"Cc1cc(CNC(=O)c2nc3n(c(=O)c2O)CC2CCC3(NC(=O)[C@@H]3CCN3S(C)(=O)=O)CC2)ccc1F [Example 276, 7,10-Ethanopyrimido[1,2-a]azepine-2-carboxamide, N-[(4-fluoro-3-methylphenyl)methyl]-4,6,7,8,9,10-hexahydro-3-hydroxy-10-[[[(2S)-1-(methylsulfonyl)-2-azetidinyl]carbonyl]amino]-4-oxo-]",< 10
10,"Cc1cc(CNC(=O)c2nc3n(c(=O)c2O)CC2CCC3(NC(=O)C(C)(C)n3cc(C(=O)N(C)C)nn3)CC2)ccc1F [Example 287, 7,10-Ethanopyrimido[1,2-a]azepine-2-carboxamide, 10-[[2-[4-[(dimethylamino)carbonyl]-1H-1,2,3-triazol-1-yl]-2-methyl-1-oxopropyl]amino]-N-[(4-fluoro-3-methylphenyl)methyl]-4,6,7,8,9,10-hexahydro-3-hydroxy-4-oxo-]",< 10
11,"CC(=O)NC12CCC(CC1)n1c2nc(C(=O)NCc2ccc(F)cc2)c(O)c1=O [Example 12, 6,9-Ethano-4H-pyrido[1,2-a]pyrimidine-2-carboxamide, 9-(acetylamino)-N-[(4-fluorophenyl)methyl]-6,7,8,9-tetrahydro-3-hydroxy-4-oxo-]",< 10
12,"Cc1ncoc1C(=O)NC12CCC(CC1)Cn1c2nc(C(=O)NCc2ccc(F)cc2)c(O)c1=O [Example 34, N-(4-Fluorobenzyl)-3-hydroxy-10-(((4-methyl-1,3-oxazol-5-yl)carbonyl)amino)-4-oxo-4,6,7,8,9,10-hexahydro-7,10-ethanopyrimido[1,2-a]azepine-2-carboxamide]",< 10
13,"O=C(NC12CCC(CCn3c1nc(C(=O)NCc1ccc(F)cc1)c(O)c3=O)C2)C(=O)N1CC(F)(F)C1 (stereo not shown) [Example 202, 8,1,1-Methano-4H-pyrimido[1,2-a]azocine-2-carboxamide, 1′-[[2-(3,3-difluoro-1-azetidinyl)-1,2-dioxoethyl]amino]-N-[(4-fluorophenyl)methyl]-6,7,8,9,10,11-hexahydro-3-hydroxy-4-oxo-]",< 10
14,"CN(C)C12CCC(CC1)Cn1c2nc(C(=O)NCc2ccc(F)cc2)c(O)c1=O [Example 150, 10-(Dimethylamino)-N-(4-fluorobenzyl)-3-hydroxy-4-oxo-4,6,7,8,9,10-hexahydro-7,10-ethanopyrimido[1,2-a]azepine-2-carboxamide]",> 100
15,"CN(C)C(=O)C(=O)NC12CCC(CC1)Cn1c2nc(C(=O)NCc2ccc(F)cc2-c2ccccc2)c(O)c1=O [Example 307, Ethanediamide, N′-[2-[[[(5-fluoro/[1,1′-biphenyl]-2-yl)methyl]amino]carbonyl]-6,7,8,9-tetrahydro-3-hydroxy-4-oxo-7,10-ethanopyrimido[1,2-a]azepin-10(4H)-yl]-N,N-dimethyl-]",< 10
16,"Cc1cc(CNC(=O)c2nc3n(c(=O)c2O)CC2CCC3(NC(=O)[C@@H]3CC(F)(F)CN3S(C)(=O)=O)CC2)ccc1F [Example 290, 7,10-Ethanopyrimido[1,2-a]azepine-2-carboxamide, 10-[[[(2S)-4,4-difluoro-1-(methylsulfonyl)-2-pyrrolidinyl]carbonyl]amino]-N-[(4-fluoro-3-methylphenyl)methyl]-4,6,7,8,9,10-hexahydro-3-hydroxy-4-oxo-]",< 10
17,"CC(=O)N1[C@@H]2C[C@@H]2C[C@H]1C(=O)NC12CCC(CC1)Cn1c2nc(C(=O)NCc2ccc(F)cc2)c(O)c1=O [Example 270, 7,10-Ethanopyrimido[1,2-a]azepine-2-carboxamide, 10-[[[(1R,3S,5R)-2-acetyl-2-azabicyclo[3.1.0]hex-3-yl]carbonyl]amino]-N-[(4-fluorophenyl)methyl]-4,6,7,8,9,10-hexahydro-3-hydroxy-4-oxo-]",< 10
18,"CN(C(=O)N(C)C12CCC(CC1)Cn1c2nc(C(=O)NCc2ccc(F)cc2)c(O)c1=O)c1ccccn1 [Example 328, 7,10-Ethanopyrimido[1,2-a]azepine-2-carboxamide, N-[(4-fluorophenyl)methyl]-4,6,7,8,9,10-hexahydro-3-hydroxy-10-[methyl[(methyl-2-pyridinylamino)carbonyl]amino]-4-oxo-]",10 to 100
19,"O=C(O)C(=O)NC12CCC(CC1)Cn1c2nc(C(=O)NCc2ccc(F)cc2)c(O)c1=O [Example 84, ((2-((4-Fluorobenzyl)carbamoyl)-3-hydroxy-4-oxo-6,7,8,9-tetrahydro-7,10-ethanopyrimido[1,2-a]azepin-10(4H)-yl)amino) (oxo)acetic acid]",< 10

# From patent publication US8129398B2 (priority 2008, dated 2012)
